Patent US10179816B2, “Pharmaceutical compositions comprising an antibody which binds the human anti-Müllerian hormone receptor type II” (LABORATOIRE FRANCAIS DU FRACTIONNEMENT DES BIOTECHNOLOGIES, priority 2011, dated 2019)
Values joined by “and” are separate entries in the source; they are usually repeats but may differ in a detail not shown here. Equal values may be shown once. “Also recorded” adds a separate entry of the source.

Tested on: Cov434-AMHRII Asc1a5 (cell line of human ovarian cancer transfected with cDNA AMHRII)
Test: Anti-tumour activity of 3C23K alone or with carboplatin in Cov434-AMHRII Asc1a5 xenograft (tumour volume, T/C ratio, statistical analysis)
Type: in vivo, female Swiss nude mouse
Protocol: The 3C23K antibody was evaluated according to the following scheme: 2 times per week for 6 weeks, for a total of 12 injections at about 10 mg/kg/injection, said administration regimen being designated below as “Q3-4D12”. Another group of mice was treated with an irrelevant antibody LFB-R565, administered at about 10 mg/kg/injection, according to the regimen Q3-4D12.
Carboplatin was evaluated, at a sub-optimum dose, i.e. about 60 mg/kg/injection, according to the following scheme: once a week, for 4 weeks, said administration regimen being designated below as “Q7D4”.
Carboplatin was also evaluated in combination with the 3C23K antibody or with the irrelevant antibody LFB-R565. Carboplatin was administered at about 60 mg/kg/injection according to the Q7D4 regimen and the 3C23K antibody or the irrelevant antibody LFB-R565 at about 10 mg/kg/injection according to the regimen Q3-4D12.
The mice were randomized on D11, when the volume of the tumours was between 50 and 158 mm^3, and the treatments began on D13 (9 mice per group).
The tumours were usually measured twice weekly.
The curves of the individual volume of the tumours were plotted.
In one experiment with 9 mice per group, the curves and analyses were therefore stopped when fewer than 8 values per group had been obtained (8 mice alive).
A Kruskal-Wallis test was also carried out.

[1] = D11, randomization, before treatment

## 3C23K: mutated humanized 12G4 monoclonal antibody binding AMHR-II, produced by the 3C23K clone; light chain SEQ ID NO: 11, heavy chain SEQ ID NO: 13
[1]
  Individual tumour volume: 98 mm^3 and 90 mm^3 and 61 mm^3 and 80 mm^3 and 57 mm^3 and 147 mm^3 and 113 mm^3 and 72 mm^3
  Mean tumour volume: 88 mm^3
  Median tumour volume: 80 mm^3
D14
  Individual tumour volume: 104 mm^3 and 179 mm^3 and 60 mm^3 and 72 mm^3 and 67 mm^3 and 216 mm^3 and 166 mm^3 and 84 mm^3
  Mean tumour volume: 111 mm^3
  Median tumour volume: 84 mm^3
D18
  Individual tumour volume: 72 mm^3 (2×) and 88 mm^3 and 36 mm^3 and 21 mm^3 and 41 mm^3 and 140 mm^3 and 80 mm^3
  Mean tumour volume: 67 mm^3
  Median tumour volume: 72 mm^3
D22
  Individual tumour volume: 60 mm^3 and 150 mm^3 and 30 mm^3 and 0 mm^3 and 36 mm^3 and 131 mm^3 and 77 mm^3 and 158 mm^3
  Mean tumour volume: 79 mm^3
  Median tumour volume: 70 mm^3
D25
  Individual tumour volume: 0 mm^3 (3×) and 126 mm^3 and 24 mm^3 and 180 mm^3 and 74 mm^3 and 216 mm^3
  Mean tumour volume: 79 mm^3
  Median tumour volume: 74 mm^3
D29
  Individual tumour volume: 0 mm^3 (2×) and 322 mm^3 and 27 mm^3 and 48 mm^3 and 225 mm^3 and 146 mm^3 and 385 mm^3
  Mean tumour volume: 151 mm^3
  Median tumour volume: 146 mm^3
D32
  Individual tumour volume: 0 mm^3 (2×) and 501 mm^3 and 27 mm^3 and 15 mm^3 and 275 mm^3 and 180 mm^3 and 644 mm^3
  Mean tumour volume: 221 mm^3
  Median tumour volume: 180 mm^3
D36
  Individual tumour volume: 0 mm^3 (3×) and 653 mm^3 and 87 mm^3 and 363 mm^3 and 182 mm^3 and 784 mm^3
  Mean tumour volume: 278 mm^3
  Median tumour volume: 182 mm^3
D39
  Individual tumour volume: 0 mm^3 (3×) and 784 mm^3 and 210 mm^3 and 315 mm^3 and 182 mm^3 and 1200 mm^3 and 546 mm^3
  Mean tumour volume: 360 mm^3
  Median tumour volume: 210 mm^3
D43
  Individual tumour volume: 0 mm^3 (3×) and 1171 mm^3 and 420 mm^3 and 631 mm^3 and 393 mm^3 and 1403 mm^3 and 731 mm^3
  Mean tumour volume: 528 mm^3
  Median tumour volume: 420 mm^3
D46
  Individual tumour volume: 0 mm^3 (3×) and 1683 mm^3 and 598 mm^3 and 504 mm^3 and 275 mm^3 and 1650 mm^3 and 518 mm^3
  Mean tumour volume: 581 mm^3
  Median tumour volume: 504 mm^3
D49
  Individual tumour volume: 0 mm^3 (3×) and 1870 mm^3 and 1188 mm^3 and 784 mm^3 and 655 mm^3 and 2646 mm^3 and 945 mm^3
  Mean tumour volume: 899 mm^3
  Median tumour volume: 784 mm^3
Carboplatin study, comparator as stated in the sentence
  Anti-tumour activity (in words): significant anti-tumour activity; also recorded: anti-tumour effect greater than carboplatin; also recorded: exerts anti-tumour activity
Relative to Control group, D11 (before treatment)
  T/C ratio: 88%
Relative to Control group, D14
  T/C ratio: 52%
Relative to Control group, D18
  T/C ratio: 33%
Relative to Control group, D22
  T/C ratio: 18%
Relative to Control group, D25
  T/C ratio: 17%
Relative to Control group, D29
  T/C ratio: 23%
Relative to Control group, D32
  T/C ratio: 18%
Relative to Control group, D36
  T/C ratio: 12%
Relative to LFB-R565, after D18 up to D36
  T/C ratio: less than 26%
Relative to LFB-R565 group, D11 (before treatment)
  T/C ratio: 99%
Relative to LFB-R565 group, D14
  T/C ratio: 55%
Relative to LFB-R565 group, D18
  T/C ratio: 41%
Relative to LFB-R565 group, D22
  T/C ratio: 26%
Relative to LFB-R565 group, D25
  T/C ratio: 18%
Relative to LFB-R565 group, D29
  T/C ratio: 21%
Relative to LFB-R565 group, D32
  T/C ratio: 26%
Relative to LFB-R565 group, D36
  T/C ratio: 10%
Relative to carboplatin group, D11 (before treatment)
  T/C ratio: 99%
Relative to carboplatin group, D14
  T/C ratio: 63%
Relative to carboplatin group, D18
  T/C ratio: 64%
Relative to carboplatin group, D22
  T/C ratio: 26%
Relative to carboplatin group, D25
  T/C ratio: 31%
Relative to carboplatin group, D29
  T/C ratio: 41%
Relative to carboplatin group, D32
  T/C ratio: 39%
Relative to carboplatin group, D36
  T/C ratio: 29%
Relative to carboplatin group, D39
  T/C ratio: 32%
Relative to carboplatin group, D43
  T/C ratio: 48%
Relative to carboplatin group, from D22 to D39
  T/C ratio: less than 42%
Relative to control, after D18 (from D22) up to D36
  T/C ratio: less than 23%
